Assay results as given in patent US20250346550A1, “METHODS OF MODULATING ENDONUCLEASE G USING RESVERATROL AND ITS DERIVATIVES” (THE REGENTS OF THE UNIVERSITY OF COLORADO A BODY CORPORATE, priority 2022, published 2025).

Tested on: cross-fertilized embryos with persistent uaDf5 paternal mitochondria (loss of lgg-1)
Assay: embryonic lethality caused by persistent uaDf5 paternal mitochondria
Assay type: in vivo, C. elegans
Conditions: 100 μM, males pretreated eight hours before mating, 25° C.
Method: FIG. 10. Trans-resveratrol reduces embryonic lethality through enhancing removal of mutant paternal mitochondria. The embryonic lethality rate was scored in cross-fertilized embryos from crosses of the indicated genotypes. Males were pretreated with either 0.5% ethanol (Mock) or […] trans-resveratrol (trans) for eight hours before mating. All males carried smIs42 to assist identification of zygotes. Data are means SEM; n>200 embryos per cross at 25° C. n.s., no significant difference; *P<0.05 using two-sided, unpaired t-test.
Several studies have shown that abnormal persistence of paternal mitochondria is detrimental to normal development and causes various deficiencies, including neurological and muscular defects, which lack treatment options.

Oc1ccc(/C=C/c2cc(O)cc(O)c2)cc1 [trans-resveratrol, 3,5,4′-trihydroxy-trans-stilbene]
embryonic lethality caused by uaDf5 paternal mitochondria: significantly reduced embryonic lethality
